Active and inactive are the calls of the source. No cut-off for these calls is given here.
Tests used:
NCI-H3122 [1] = assay: Antitumor activity against human NCI-H3122 cells xenografted in BALB/c nude mouse assessed as reduction in tumor weight at 50 mg/kg, IG administered once daily for 18 days and measured after 12 hrs of last dose; type: functional, organism-based; details: time 444.0 hrs
[2] = Toxicity in BALB/c nude mouse xenografted with human NCI-H3122 cells assessed as effect on lung function at 50 mg/kg, IG administered once daily for 18 days by H and E staining based assay; type: organism-based; details: in vivo, po, 432 h, time 18 day
[3] = Toxicity in BALB/c nude mouse xenografted with human NCI-H3122 cells assessed as effect on spleen function at 50 mg/kg, IG administered once daily for 18 days by H and E staining based assay; type: organism-based; details: in vivo, po, 432 h, time 18 day
NCI-H3122 [4] = assay: Antitumor activity against human NCI-H3122 cells xenografted in BALB/c nude mouse assessed as tumor growth inhibition at 50 mg/kg, IG administered once daily for 18 days and measured after 12 hrs of last dose relative to control; type: functional; details: NCI-H3122, po, time 444 hrs, read-out: TGI
Mus musculus = assay: In vivo PROTAC activity at CRBN/EML4-ALK in BALB/c nude mouse xenografted with human NCI-H3122 cells assessed as reduction in EML4-ALK protein expression in tumor at 50 mg/kg, IG administered once daily for 18 days and measured after 12 hrs of last dose by immunohistochemical analysis; type: functional, organism-based; details: time 444.0 hrs
[5] = molecular target: Protein cereblon/ALK tyrosine kinase receptor (Homo sapiens, UniProt Q96SW2+Q9UM73); assay: PROTAC activity at CRBN/ALK in human NCI-H3122 cells assessed as induction of ALK degradation incubated for 24 hrs by Western blot analysis; type: cell-based
Chain of Protein cereblon/ALK tyrosine kinase receptor (Q9UM73 whole entry): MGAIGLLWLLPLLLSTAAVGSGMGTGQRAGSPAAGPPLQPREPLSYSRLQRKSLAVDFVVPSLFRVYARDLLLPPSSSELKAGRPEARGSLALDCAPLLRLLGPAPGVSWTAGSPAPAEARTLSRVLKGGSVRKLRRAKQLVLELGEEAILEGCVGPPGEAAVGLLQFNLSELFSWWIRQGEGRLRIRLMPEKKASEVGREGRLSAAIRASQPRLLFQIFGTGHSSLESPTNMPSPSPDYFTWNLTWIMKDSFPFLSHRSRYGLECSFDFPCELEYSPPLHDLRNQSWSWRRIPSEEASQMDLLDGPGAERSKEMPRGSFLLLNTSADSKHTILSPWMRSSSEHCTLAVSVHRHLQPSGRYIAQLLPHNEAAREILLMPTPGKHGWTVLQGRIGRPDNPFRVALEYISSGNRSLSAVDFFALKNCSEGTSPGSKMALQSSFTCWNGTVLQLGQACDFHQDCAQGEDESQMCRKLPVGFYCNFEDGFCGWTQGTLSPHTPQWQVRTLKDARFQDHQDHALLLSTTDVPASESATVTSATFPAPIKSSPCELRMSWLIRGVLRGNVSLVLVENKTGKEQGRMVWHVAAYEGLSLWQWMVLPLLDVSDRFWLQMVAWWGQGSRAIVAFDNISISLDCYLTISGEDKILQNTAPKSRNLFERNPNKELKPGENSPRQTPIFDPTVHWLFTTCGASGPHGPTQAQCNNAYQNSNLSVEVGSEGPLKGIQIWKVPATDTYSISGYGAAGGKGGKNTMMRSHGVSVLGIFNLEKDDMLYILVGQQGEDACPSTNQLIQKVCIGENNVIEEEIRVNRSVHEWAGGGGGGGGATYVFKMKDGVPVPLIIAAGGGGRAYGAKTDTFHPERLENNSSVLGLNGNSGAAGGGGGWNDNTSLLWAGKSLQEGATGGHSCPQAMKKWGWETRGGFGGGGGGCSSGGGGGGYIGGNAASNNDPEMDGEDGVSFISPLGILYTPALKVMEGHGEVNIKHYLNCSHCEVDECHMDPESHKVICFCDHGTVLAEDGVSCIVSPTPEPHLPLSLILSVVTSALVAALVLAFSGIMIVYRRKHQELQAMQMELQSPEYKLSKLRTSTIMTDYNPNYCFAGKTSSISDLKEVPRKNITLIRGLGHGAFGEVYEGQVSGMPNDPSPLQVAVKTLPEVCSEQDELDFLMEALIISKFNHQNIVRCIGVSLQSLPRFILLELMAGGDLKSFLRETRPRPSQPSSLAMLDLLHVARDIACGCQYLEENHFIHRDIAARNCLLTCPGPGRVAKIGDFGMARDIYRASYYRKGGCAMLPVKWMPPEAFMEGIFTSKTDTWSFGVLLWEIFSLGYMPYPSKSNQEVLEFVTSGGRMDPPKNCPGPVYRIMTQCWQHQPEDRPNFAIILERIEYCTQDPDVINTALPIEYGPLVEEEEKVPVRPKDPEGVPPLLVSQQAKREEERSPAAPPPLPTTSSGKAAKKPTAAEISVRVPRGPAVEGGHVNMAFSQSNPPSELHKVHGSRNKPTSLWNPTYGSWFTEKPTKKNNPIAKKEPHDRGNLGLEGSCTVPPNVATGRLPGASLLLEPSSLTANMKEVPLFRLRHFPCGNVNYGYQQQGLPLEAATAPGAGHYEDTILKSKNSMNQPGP
Chain of Protein cereblon/ALK tyrosine kinase receptor (Q96SW2 whole entry): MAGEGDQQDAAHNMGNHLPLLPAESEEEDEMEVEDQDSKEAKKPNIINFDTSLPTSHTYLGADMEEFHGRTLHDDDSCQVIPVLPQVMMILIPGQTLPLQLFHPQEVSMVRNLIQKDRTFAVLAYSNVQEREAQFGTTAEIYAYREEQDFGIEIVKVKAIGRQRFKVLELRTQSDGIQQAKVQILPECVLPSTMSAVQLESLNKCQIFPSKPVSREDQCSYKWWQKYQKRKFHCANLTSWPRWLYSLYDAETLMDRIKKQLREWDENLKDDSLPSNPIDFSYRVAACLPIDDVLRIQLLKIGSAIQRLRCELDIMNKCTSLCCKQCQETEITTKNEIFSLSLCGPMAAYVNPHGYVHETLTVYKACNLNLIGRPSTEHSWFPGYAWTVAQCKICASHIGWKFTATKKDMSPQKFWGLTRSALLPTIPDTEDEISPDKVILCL

[6] = Toxicity in BALB/c nude mouse xenografted with human NCI-H3122 cells assessed as effect on visceral liver morphology at 50 mg/kg, IG administered once daily for 18 days and measured after 12 hrs of last dose by H and E staining based assay; type: organism-based; details: in vivo, po, 444 h
[7] = Toxicity in BALB/c nude mouse xenografted with human NCI-H3122 cells assessed as effect on heart function at 50 mg/kg, IG administered once daily for 18 days and measured after 12 hrs of last dose by H and E staining based assay; type: organism-based; details: in vivo, po, 444 h
[8] = Toxicity in BALB/c nude mouse xenografted with human NCI-H3122 cells assessed as effect on visceral spleen morphology at 50 mg/kg, IG administered once daily for 18 days and measured after 12 hrs of last dose by H and E staining based assay; type: organism-based; details: in vivo, po, 444 h
[9] = Toxicity in BALB/c nude mouse xenografted with human NCI-H3122 cells assessed as effect on kidney function at 50 mg/kg, IG administered once daily for 18 days by H and E staining based assay; type: organism-based; details: in vivo, po, 432 h, time 18 day
NCI-H3122 [10] = assay: Antiproliferative activity against human NCI-H3122 cells assessed as inhibition of cell growth incubated for 5 days in presence of 2-(4-(6-((6-acetyl-8-cyclopentyl-5-methyl-7-oxo-7,8-dihydropyrido[2,3-d]pyrimidin-2-yl)amino)pyridin-3-yl)piperazin-1-yl)-N-(2-mercaptoethyl)acetamide by MTT assay; type: functional, cell-based; details: NCI-H3122, 120 h
[11] = Toxicity in BALB/c nude mouse xenografted with human NCI-H3122 cells assessed as effect on visceral lung morphology at 50 mg/kg, IG administered once daily for 18 days and measured after 12 hrs of last dose by H and E staining based assay; type: organism-based; details: in vivo, po, 444 h
[12] = Toxicity in BALB/c nude mouse xenografted with human NCI-H3122 cells assessed as effect on visceral kidney morphology at 50 mg/kg, IG administered once daily for 18 days and measured after 12 hrs of last dose by H and E staining based assay; type: organism-based; details: in vivo, po, 444 h
[13] = Toxicity in BALB/c nude mouse xenografted with human NCI-H3122 cells assessed as effect on visceral heart morphology at 50 mg/kg, IG administered once daily for 18 days and measured after 12 hrs of last dose by H and E staining based assay; type: organism-based; details: in vivo, po, 444 h
[14] = molecular target: ALK tyrosine kinase receptor (Homo sapiens) (UniProt Q9UM73); assay: Inhibition of ALK (unknown origin) at 1 uM by LANCE Ultra TR-FRET assay relative to control
Chain of ALK tyrosine kinase receptor (Homo sapiens) (Q9UM73 19-1620 limits assumed): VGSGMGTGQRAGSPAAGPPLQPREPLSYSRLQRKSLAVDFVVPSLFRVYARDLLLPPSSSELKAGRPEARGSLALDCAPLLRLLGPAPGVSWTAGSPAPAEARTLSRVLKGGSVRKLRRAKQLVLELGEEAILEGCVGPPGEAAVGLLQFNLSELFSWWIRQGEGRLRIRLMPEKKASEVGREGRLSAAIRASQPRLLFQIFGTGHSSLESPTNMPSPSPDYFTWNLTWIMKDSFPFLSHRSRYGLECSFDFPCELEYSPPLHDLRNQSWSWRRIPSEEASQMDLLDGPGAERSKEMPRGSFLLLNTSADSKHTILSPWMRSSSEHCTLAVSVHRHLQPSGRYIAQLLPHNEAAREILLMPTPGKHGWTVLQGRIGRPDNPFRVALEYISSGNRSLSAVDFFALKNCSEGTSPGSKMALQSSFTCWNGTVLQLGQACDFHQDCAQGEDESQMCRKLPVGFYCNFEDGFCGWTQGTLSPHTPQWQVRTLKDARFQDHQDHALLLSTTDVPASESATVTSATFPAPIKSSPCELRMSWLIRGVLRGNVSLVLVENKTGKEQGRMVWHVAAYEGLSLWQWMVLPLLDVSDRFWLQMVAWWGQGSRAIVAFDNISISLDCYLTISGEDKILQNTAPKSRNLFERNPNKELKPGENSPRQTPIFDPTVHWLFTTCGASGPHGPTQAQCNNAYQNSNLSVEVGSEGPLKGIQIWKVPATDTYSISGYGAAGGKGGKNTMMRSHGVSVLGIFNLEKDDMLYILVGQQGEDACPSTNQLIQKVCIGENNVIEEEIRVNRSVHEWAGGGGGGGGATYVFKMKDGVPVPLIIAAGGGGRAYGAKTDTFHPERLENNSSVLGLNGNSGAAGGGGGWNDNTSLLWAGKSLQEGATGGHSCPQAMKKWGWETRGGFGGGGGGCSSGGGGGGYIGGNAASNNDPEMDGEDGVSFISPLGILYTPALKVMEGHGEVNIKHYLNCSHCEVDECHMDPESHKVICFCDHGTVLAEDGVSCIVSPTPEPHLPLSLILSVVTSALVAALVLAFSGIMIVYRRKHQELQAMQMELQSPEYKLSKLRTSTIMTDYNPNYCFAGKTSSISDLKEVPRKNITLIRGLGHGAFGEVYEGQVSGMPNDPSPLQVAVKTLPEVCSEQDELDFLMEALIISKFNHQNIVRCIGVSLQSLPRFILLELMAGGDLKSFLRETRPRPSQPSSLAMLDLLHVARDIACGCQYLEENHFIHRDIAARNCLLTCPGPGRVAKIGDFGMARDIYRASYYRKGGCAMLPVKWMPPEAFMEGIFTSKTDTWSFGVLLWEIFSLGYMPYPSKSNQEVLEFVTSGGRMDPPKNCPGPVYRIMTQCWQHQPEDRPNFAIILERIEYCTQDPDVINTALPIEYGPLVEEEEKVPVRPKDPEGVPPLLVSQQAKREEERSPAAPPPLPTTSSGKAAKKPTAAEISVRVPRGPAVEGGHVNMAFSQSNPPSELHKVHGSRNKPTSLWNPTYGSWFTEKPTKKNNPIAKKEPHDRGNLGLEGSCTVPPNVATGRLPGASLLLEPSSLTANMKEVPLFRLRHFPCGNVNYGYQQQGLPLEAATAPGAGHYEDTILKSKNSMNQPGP

[15] = Toxicity in BALB/c nude mouse xenografted with human NCI-H3122 cells assessed as effect on liver function at 50 mg/kg, IG administered once daily for 18 days by H and E staining based assay; type: organism-based; details: in vivo, po, 432 h, time 18 day
NCI-H3122 [16] = assay: Antiproliferative activity against human NCI-H3122 cells assessed as inhibition of cell growth incubated for 5 days by MTT assay; type: functional, cell-based; details: NCI-H3122, 120 h
[17] = molecular target: ALK tyrosine kinase receptor (Homo sapiens) (UniProt Q9UM73); assay: Inhibition of ALK (unknown origin) at 0.05 uM by LANCE Ultra TR-FRET assay relative to control
NCI-H3122 [18] = assay: Antitumor activity against human NCI-H3122 cells xenografted in BALB/c nude mouse assessed as reduction in tumor volume at 50 mg/kg, IG administered once daily for 18 days and measured after 12 hrs of last dose; type: functional, organism-based; details: time 444.0 hrs
[19] = Toxicity in BALB/c nude mouse xenografted with human NCI-H3122 cells assessed as reduction in body weight at 25 to 50 mg/kg, IG administered once daily for 18 days; type: organism-based; details: in vivo, po, 432 h, dose 25-50 mg/kg, time 18 day
[20] = Toxicity in BALB/c nude mouse xenografted with human NCI-H3122 cells assessed as tolerance at 25 to 50 mg/kg, IG administered once daily for 18 days; type: organism-based; details: in vivo, po, 432 h, dose 25-50 mg/kg, time 18 day

EC50 [5]: 690 nM | IC50 (NCI-H3122 [10]): 190 nM | inhibition [14]: 93% | IC50 (NCI-H3122 [16]): 380 nM | inhibition [17]: 82.2%
SMILES: Cc1cc(Nc2ncc(Cl)c(Nc3ccccc3S(=O)(=O)C(C)C)n2)c(OC(C)C)cc1C1CCN(C(=O)CCCCCCC(=O)N(CCS)CC(=O)NCCNc2cccc3c2C(=O)N(C2CCC(=O)NC2=O)C3=O)CC1 (stereo unspecified)
Activity (NCI-H3122 [1]): Active | Activity [2]: Non-Toxic | Activity [3]: Non-Toxic | inhibition in vivo at 50 mg/kg (NCI-H3122 [4]): 51.1% | Activity (Mus musculus): Active | Activity [6]: Non-Toxic | Activity [7]: Non-Toxic | Activity [8]: Non-Toxic | Activity [9]: Non-Toxic | Activity [11]: Non-Toxic | Activity [12]: Non-Toxic | Activity [13]: Non-Toxic | Activity [15]: Non-Toxic | Activity (NCI-H3122 [18]): Active | Activity [19]: Non-Toxic | Activity [20]: Non-Toxic

Reference: ChEMBL document CHEMBL5321200, “Discovery of the GSH responsive "Y-PROTACs" targeting ALK and CDK4/6 as a potential treatment for cancer” (Eur J Med Chem, 2023)
